Test results as given in US10377746B2, “Indolin-2-one derivatives” (Hoffmann-La Roche Inc., priority 2015, dated 2019).

Key:
mouse ENT-1 transporter = mouse ENT-1 transporter (Mus musculus (Mouse), UniProt Q9JIM1); assay: Determination of adenosine transport activity (ENT1, [3H]-adenosine uptake); format: cell-based; details: stable cells expressing mouse ENT-1; [2,8-3H]-adenosine 6 nM, 20 min
Protocol: To measure adenosine transport activity of ENT-1 mammalian cells, stable cells expressing the mouse ENT-1 transporter were plated on day 1 in 96-well culture plates at the density of 60,000 cells/well, in complete DMEM/F12 medium supplemented with glutamax, 10% FBS and 10 μg/ml puromycin. On day 2, the medium was aspirated and the cells were washed twice with uptake buffer (10 mM Hepes-Tris, pH 7.4 containing 150 mM NaCl, 1 mM
CaCl2, 2.5 mM KCl, 2.5 mM MgSO4, 10 mM D-glucose) (UB). For inhibition experiments, cells were then incubated at RT with various concentrations of compounds with 1% DMSO final. Non-specific uptake was defined in the presence of 10 μM S-(4-Nitrobenzyl)-6-thioinosine (NBTI, Sigma Cat #N2255).
A solution containing [2,8-^3H]-adenosine 6 nM (40 Ci/mmol, American Radiolabeled chemicals Inc, Cat #ART 0287A) was then immediately added to the wells. The plates were then incubated for 20 min with gentle shaking and the reaction was stopped by aspiration of the mixture and washing (three times) with ice-cold UB. The cells were lysed by the addition of scintillation liquid, shaken 3 hours and the radioactivity in the cells was estimated using a microplates scintillation counter (TopCount NXT, Packard).

[1] = system: L-687,414-induced hyperlocomotion; assay: L-687,414-induced hyperlocomotion; format: in vivo, mouse; details: mice; 30 mg/kg ip, 15 min before 50 mg/kg s.c. L-687,414
Protocol: The described compounds of formula I reduce L-687,414-induced hyperlocomotion. This was assessed by using a computerized Digiscan 16 Animal Activity Monitoring System (Omnitech Electronics, Columbus, Ohio) to quantify locomotor activity. Animals were kept under a 12 h light/dark cycle and experiments were performed during the light period. Each activity monitoring chamber consisted of a Plexiglas box (41×41×28 cm; W×L×H) with sawdust bedding on the floor surrounded by invisible horizontal and vertical infrared sensor beams. The test boxes were divided by a Plexiglas cross providing each mouse with 20×20 cm of moving space. Cages were connected to a Digiscan Analyzer linked to a computer that constantly collected the beam status information. Records of photocell beam interruptions for individual animals were taken every 5 min over the duration of the experimental session and the sum of the first 6 periods was used as the final parameter. At least 8 mice were used in each treatment group. Compounds were administered i.p. 15 min before a s.c. injection of 50 mg/kg of L-687,414. Mice were then transferred from their home cage to the recording chambers for a 15-min habituation phase allowing free exploration of the new environment. Horizontal activity was then recorded for a 30-min time period. The % inhibition of L-687,414-induced hyperlocomotion was calculated according to the equation: ((Veh+L-687,414horizontal activity−drug+L-687,414horizontal activity)/Veh+L-687,414horizontal activity)×100
ID50 values, defined as doses of each compound producing 50% inhibition of L-687,414-induced hyperlocomotion, were calculated by linear regression analysis of a dose-response data using an Excel-based computer-fitting program.
As data was not presupposed to be normally distributed, groups treated with test compounds were statistically compared with the control (vehicle-treated) group using one-tailed Mann Whitney U tests. […]

[2] = system: behavioral signature of compound-treated mice; assay: SmartCube behavioral signature similarity analysis; format: in vivo, mouse; details: for SmartCube similarity to major classes of compounds: i.p., in words; for discrimination rate vs Clozapine (1.0 mg/kg) / discrimination rate vs Olanzapine (0.25 mg/kg) / discrimination rate vs Risperidone (0.06 mg/kg): rate <=0.70 = similar
From the text: In addition to the reversal of L-687,414 induced hyperlocomotion experiment as described above, some compounds of the present invention have been tested in SmartCube®, an automated system in which the behaviors of compound-treated mice in response to multiple challenges are captured by digital video and analyzed with computer algorithms (Roberds et al., Frontiers in Neuroscience, 2011, Vol. 5, Art. 103, 1-4; Vadim Alexandrov, Dani Brunner, Taleen Hanania, Emer Leahy Eur. J. Pharmacol. 2015, 750, 82-99). In this way, the neuro-pharmacological effects of a test compound can be predicted by similarity to major classes of compounds, such as antipsychotics, anxiolytics and antidepressants.
SmartCube® was used to compare the behavioral signature of a test compound to a database of behavioral signatures obtained from a large set of clinically approved reference drugs, grouped per indications. In this way, the neuro-pharmacological effects of a test compound can be predicted by similarity to major classes of compounds, such as antipsychotics, anxiolytics and antidepressants. This approach is ideally suited to screen collections of existing drugs or drug candidates with previously unknown neuropharmacology, which could expedite the development of new and unexpected treatments for psychiatric disorders.
Some compounds of the present invention were injected i.p. at different doses 15 minutes before the test. At least 8 mice were used in each treatment group. Digital videos of the subjects were processed with computer vision algorithms to extract over 2000 dependent measures including frequency and duration of many different behavioral states. The results of the classifications are presented as bar charts for each compound and dose (mg/kg), the Y-axis indicates the relative probability that the test compound will show efficacy in the specific CNS indication.
Compounds of the present invention show similar signatures to those of atypical antipsychotics. An independent analysis was performed on the unclassified data to determine the similarity of the example compounds to active doses of known atypical antipsychotics. For this analysis, we use discrimination rate as the measure of separability between the two drugs, i.e. one drug's “distinguishability” from another. A rate equal to 50% (or 0.5) corresponds to zero distinguishability. […] In most cases, the example compounds show a similarity to risperidone, clozapine and olanzapine with a discrimination rate of ≤0.70.

mouse ENT-1 transporter, sequence (Q9JIM1 whole entry): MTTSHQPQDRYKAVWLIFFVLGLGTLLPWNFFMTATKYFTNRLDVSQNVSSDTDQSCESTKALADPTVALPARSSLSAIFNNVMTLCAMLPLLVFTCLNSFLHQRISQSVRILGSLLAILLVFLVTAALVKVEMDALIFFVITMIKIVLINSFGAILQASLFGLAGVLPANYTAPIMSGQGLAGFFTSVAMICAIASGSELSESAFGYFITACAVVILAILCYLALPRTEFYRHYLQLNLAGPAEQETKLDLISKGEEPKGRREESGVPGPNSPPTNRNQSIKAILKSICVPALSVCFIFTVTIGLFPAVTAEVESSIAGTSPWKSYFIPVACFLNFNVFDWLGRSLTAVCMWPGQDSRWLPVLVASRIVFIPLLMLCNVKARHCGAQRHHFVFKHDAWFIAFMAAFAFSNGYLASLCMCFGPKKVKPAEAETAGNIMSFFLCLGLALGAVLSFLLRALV

IC50 (mouse ENT-1 transporter) | Compound | also measured
189 nM | Cc1ncc(-c2ccc3c(c2)N(c2ccc4ccsc4c2)C(=O)C3(C)C)cn1 [Example 1, 1-(Benzo[b]thiophen-6-yl)-3,3-dimethyl-6-(2-methylpyrimidin-5-yl)indolin-2-one] | 
844 nM | Cc1ncc(-c2ccc3c(c2)N(c2cccc4sccc24)C(=O)C3(C)C)cn1 [Example 2, 1-(Benzo[b]thiophen-4-yl)-3,3-dimethyl-6-(2-methylpyrimidin-5-yl)indolin-2-one] | 
32.1 nM | Cc1ncc(-c2ccc3c(c2)N(c2cncc(S(C)(=O)=O)c2)C(=O)C3(C)C)cn1 [Example 3, 3,3-Dimethyl-6-(2-methylpyrimidin-5-yl)-1-(5-(methylsulfonyl)pyridin-3-yl)indolin-2-one] | Inhibition, ip of L-687,414-induced hyperlocomotion [1]: 92.8%; SmartCube similarity to major classes of compounds [2]: similarity to atypical antipsychotics; discrimination rate vs Clozapine (1.0 mg/kg) ([2]; test compound 3 mg/kg i.p.): 0.58; discrimination rate vs Olanzapine (0.25 mg/kg) ([2]; test compound 3 mg/kg i.p.): 0.60; discrimination rate vs Risperidone (0.06 mg/kg) ([2]; test compound 3 mg/kg i.p.): 0.67
40.1 nM | Cc1ncc(-c2ccc3c(c2)N(c2cncc(S(C)(=O)=O)n2)C(=O)C3(C)C)cn1 [Example 4, 3,3-Dimethyl-6-(2-methylpyrimidin-5-yl)-1-(6-(methylsulfonyl)pyrazin-2-yl)indolin-2-one] | 
106 nM | Cc1ncc(-c2ccc3c(c2)N(c2cccc(S(C)(=O)=O)c2)C(=O)C3(C)C)cn1 [Example 5, 3,3-Dimethyl-6-(2-methylpyrimidin-5-yl)-1-(3-(methylsulfonyl)phenyl)indolin-2-one] | Inhibition, ip of L-687,414-induced hyperlocomotion [1]: 96%; SmartCube similarity to major classes of compounds [2]: similarity to atypical antipsychotics; discrimination rate vs Clozapine (1.0 mg/kg) ([2]; test compound 5 mg/kg i.p.): 0.55; discrimination rate vs Olanzapine (0.25 mg/kg) ([2]; test compound 5 mg/kg i.p.): 0.54; discrimination rate vs Risperidone (0.06 mg/kg) ([2]; test compound 5 mg/kg i.p.): 0.52
44.9 nM | Cc1ncc(-c2ccc3c(c2)N(c2cncc(S(=O)(=O)N(C)C)c2)C(=O)C3(C)C)cn1 [Example 6, 5-(3,3-Dimethyl-6-(2-methylpyrimidin-5-yl)-2-oxoindolin-1-yl)-N,N-dimethylpyridine-3-sulfonamide] | 
135 nM | Cc1ncc(-c2ccc3c(c2)N(c2cncc(S(=O)(=O)C(C)C)c2)C(=O)C3(C)C)cn1 [Example 7, 1-(5-(Isopropylsulfonyl)pyridin-3-yl)-3,3-dimethyl-6-(2-methylpyrimidin-5-yl)indolin-2-one] | 
40 nM | Cc1ncc(-c2ccc3c(c2)N(c2cncc(S(=O)(=O)C4CC4)c2)C(=O)C3(C)C)cn1 [Example 8, 1-(5-(Cyclopropylsulfonyl)pyridin-3-yl)-3,3-dimethyl-6-(2-methylpyrimidin-5-yl)indolin-2-one] | 
218 nM | CSc1cncc(N2C(=O)C(C)(C)c3ccc(-c4cnc(C)nc4)cc32)c1 [Example 9, 3,3-Dimethyl-6-(2-methylpyrimidin-5-yl)-1-(5-(methylthio)pyridin-3-yl)indolin-2-one] | 
128 nM | Cc1ncc(-c2ccc3c(c2)N(c2cncc(S(N)(=O)=O)c2)C(=O)C3(C)C)cn1 [Example 10, 5-(3,3-Dimethyl-6-(2-methylpyrimidin-5-yl)-2-oxoindolin-1-yl)pyridine-3-sulfonamide] | 
169 nM | Cc1ncc(-c2ccc3c(c2)N(c2cncc(S(=O)(=O)N4CCC4)c2)C(=O)C3(C)C)cn1 [Example 11, 1-(5-(Azetidin-1-ylsulfonyl)pyridin-3-yl)-3,3-dimethyl-6-(2-methylpyrimidin-5-yl)indolin-2-one] | 
79.3 nM | COCCN(C)S(=O)(=O)c1cncc(N2C(=O)C(C)(C)c3ccc(-c4cnc(C)nc4)cc32)c1 [Example 12, 5-(3,3-dimethyl-6-(2-methylpyrimidin-5-yl)-2-oxoindolin-1-yl)-N-(2-methoxyethyl)-N-methylpyridine-3-sulfonamide] | 
71.7 nM | CNS(=O)(=O)c1cncc(N2C(=O)C(C)(C)c3ccc(-c4cnc(C)nc4)cc32)c1 [Example 13, 5-(3,3-Dimethyl-6-(2-methylpyrimidin-5-yl)-2-oxoindolin-1-yl)-N-methylpyridine-3-sulfonamide] | 
38.5 nM | Cc1ncc(-c2ccc3c(c2)N(c2cnc(C4CC4)c(S(C)(=O)=O)c2)C(=O)C3(C)C)cn1 [Example 14, 1-(6-Cyclopropyl-5-(methylsulfonyl)pyridin-3-yl)-3,3-dimethyl-6-(2-methylpyrimidin-5-yl)indolin-2-one] | 
313 nM | Cc1cncc(-c2ccc3c(c2)N(c2cncc(S(C)(=O)=O)c2)C(=O)C3(C)C)c1 [Example 16, 3,3-Dimethyl-6-(5-methylpyridin-3-yl)-1-(5-(methylsulfonyl)pyridin-3-yl)indolin-2-one] | 
27 nM | Cc1ncc(-c2ccc3c(c2)N(c2cncc(S(C)(=O)=O)c2)C(=O)C3(C)C)cc1F [Example 17, 6-(5-Fluoro-6-methylpyridin-3-yl)-3,3-dimethyl-1-(5-(methylsulfonyl)pyridin-3-yl)indolin-2-one] | 
27 nM | Cc1ncc(-c2ccc3c(c2)N(c2cnc(S(C)(=O)=O)cn2)C(=O)C3(C)C)cn1 [Example 18, 3,3-Dimethyl-6-(2-methylpyrimidin-5-yl)-1-(5-(methylsulfonyl)pyrazin-2-yl)indolin-2-one] | 
157 nM | Cc1ncc(-c2ccc3c(c2)N(c2ccc(S(C)(=O)=O)cn2)C(=O)C3(C)C)cn1 [Example 19, 3,3-Dimethyl-6-(2-methylpyrimidin-5-yl)-1-(5-(methylsulfonyl)pyridin-2-yl)indolin-2-one] | Inhibition, ip of L-687,414-induced hyperlocomotion [1]: 93.5%; SmartCube similarity to major classes of compounds [2]: similarity to atypical antipsychotics; discrimination rate vs Clozapine (1.0 mg/kg) ([2]; test compound 5 mg/kg i.p.): 0.54; discrimination rate vs Olanzapine (0.25 mg/kg) ([2]; test compound 5 mg/kg i.p.): 0.52; discrimination rate vs Risperidone (0.06 mg/kg) ([2]; test compound 5 mg/kg i.p.): 0.50
230 nM | Cc1ncc(-c2ccc3c(c2)N(c2cncc(S(C)(=O)=O)c2)C(=O)C32CCC2)cn1 [Example 20, 6′-(2-Methylpyrimidin-5-yl)-1′-(5-(methylsulfonyl)pyridin-3-yl)spiro[cyclobutane-1,3′-indolin]-2′-one] | 

Compound | IC50 (mouse ENT-1 transporter) | also measured
3,3-Dimethyl-6-(2-methyl-1-oxidopyrimidin-1-ium-5-yl)-1-(6-methylsulfonylpyrazin-2-yl)indol-2-one [Example 15] | 218 nM | 
